From patent US8563602B2, “Method of improving animal tissue quality by supplementing the animal diet with oleic acid and selected tocols” (E.I. du Pont de Nemours and Co., priority 2004, dated 2013)
Marks after values point to notes of the source that are not given here.

How the values were obtained:
[1] = In vitro addition of gamma-tocopherol to ground pork: TBARS of cooked patties; conditions: GT 100 ppm added in vitro to raw ground pork, HO = pork from swine fed high oleic diet
Protocol: Applicants assessed the effects of in vitro addition of gamma-tocopherol to ground pork from swine fed a diet supplemented with oleic acid in order to evaluate gamma tocopherol's value as an animal feed supplement when used in conjunction with oleic acid. Gamma-tocopherol was added to the raw (uncooked) ground pork from swine whose diet was not supplemented with oleic acid and swine whose diet was supplemented with oleic acid. Ground pork from pigs fed the respective treatments were formed into patties, cooked and refrigerated for two days in plastic pouches. Samples of the cooked patties were then submitted for TBARS (thiobarbituric acid reactive substances) determination at 0 hours and 24 hours following refrigeration.

swine [2] = assay: 2003 swine feed test: belly thickness and flex; format: in vivo; conditions: recalculated from Table 2: oleic acid level High or tocotrienol addition 225 ppm
Text: (§1) Applicants assessed the effects of supplementing the animal diet with oleic acid and tocotrienol on pork meat quality in an experiment in which data from pigs fed one of four dietary treatments were compared. Seventy-two barrows (approximately 20 kg) were randomly placed in pens with water and feed provided ad libitum at the Pioneer Livestock Nutrition Center (PLNC) in Polk City, Iowa. Ad libitum swine feeding continued for 49 days (through Mar. 4, 2003) until the average weight reached 32 kg. A uniform group of 64 pigs was selected, and the pigs were randomly assigned to each of four treatments with 16 experimental units (individually housed pigs) per dietary treatment.
(§2) On Apr. 22, 2003 (Day 1 of the feed test) the feeders were emptied and the dietary treatments were commenced and continued until Jul. 14, 2003 (Day 83). Dietary treatments consisted of two levels of oleic acid (normal and high) with or without tocotrienol (0 or 225 ppm), as summarized below:
In the normal or control (CO) diet, the total dietary content of oil was 5.5 wt % of the feed. The oil was a typical corn oil having an oleic acid content of 29.6 wt % of the fatty acid fraction. In the high-oleic acid (HO) diet, the total dietary content of oil was still 5.5 wt %, but the oil was high-oleic sunflower oil with an oleic acid content of 80.2 wt % of the fatty acid fraction. The high oleic sunflower oil was purchased from Cargill, Inc. All four experimental diets were formulated with soybean meal and corn flaking grits. The latter, being largely devoid of oil, were used in conjunction with the corn and high-oleic vegetable oils to achieve the desired dietary fatty acid content. […]
The pigs were slaughtered at an average weight of 120 kg on Jul. […] Following a 24 hour chill period, the carcasses were transferred to the University of Missouri processing lab, where weight yields were recorded and meat tissue was evaluated.
The right pork carcass side was fabricated into primal and sub-primal cuts and the bellies were evaluated for thickness, firmness and fatty acid profile.

swine [3] = assay: 2003 swine feed test: belly adipose tissue fatty acid composition and iodine value; format: in vivo; conditions: recalculated from Table 4: oleic acid level High or tocotrienol addition 225 ppm
Text: as §1, §2
In the normal or control (CO) diet, the total dietary content of oil was 5.5 wt % of the feed. The oil was a typical corn oil having an oleic acid content of 29.6 wt % of the fatty acid fraction. In the high-oleic acid (HO) diet, the total dietary content of oil was still 5.5 wt %, but the oil was high-oleic sunflower oil with an oleic acid content of 80.2 wt % of the fatty acid fraction. The high oleic sunflower oil was purchased from Cargill, Inc. All four experimental diets were formulated with soybean meal and corn flaking grits. The latter, being largely devoid of oil, were used in conjunction with the corn and high-oleic vegetable oils to achieve the desired dietary fatty acid content.
The tocotrienol used to supplement the (TT) and the (HO+TT) diets was obtained commercially from Fuji Chemical Industries (U.S.A.) Inc. of Robbinsville, N.J., and contained 7.5% alpha-, 12.3% gamma- and 3.0% delta-tocotrienol (a total tocotrienol content of 22.8%), as well as 7.2% alpha-tocopherol.
The fatty acid composition and iodine values in the pork belly adipose tissue was measured.

swine [4] = assay: 2003 swine feed test: ground pork visual color score on simulated retail display; format: in vivo; conditions: recalculated from Table 6: oleic acid level High or tocotrienol addition 225 ppm
Text: as §1, §2
(§3) Samples of ground pork were packaged in PVC wrap and kept on simulated retail display for seven days. During that time trained panelists made a subjective determination of the overall color score and percent discoloration of the ground pork.
Overall color was graded on a scale of 1.0 to 5.0 as follows: 1.0=bright grayish-pink or reddish-pink (acceptable), 2.0=grayish-pink or reddish-pink (acceptable), 3.0=slightly dark pink/red/pink/tan(acceptable), 3.5=threshold of retail acceptability, 4.0=moderately tan/pinkish-red (unacceptable), and 5.0=dark tan or dark pinkish-red (unacceptable).

swine [5] = assay: 2003 swine feed test: ground pork discoloration on simulated retail display; format: in vivo; conditions: recalculated from Table 8: oleic acid level High or tocotrienol addition 225 ppm
Text: as §1, §2, §3
Percent discoloration was also determined subjectively. In the table that follows, a higher number indicates a greater percent discoloration: […]

swine [6] = assay: 2003 swine feed test: TBARS content of uncooked and cooked ground pork; format: in vivo; conditions: recalculated from Table 10: oleic acid level High or tocotrienol addition 225 ppm
Text: as §1, §2
[…]. Cooked ground pork was measured for TBARS concentration at 0 hours and 24 hours after cooking.

steers = assay: 2004 cattle feed test: uncooked ribeye steak discoloration; format: in vivo; conditions: recalculated from Table 16: oleic acid level High or tocotrienol addition 150 ppm
Text: Applicants assessed the effects of supplementing the animal diet with oleic acid and tocotrienol on beef quality in an experiment in which data from steers fed one of four dietary treatments were compared. The steers were blocked by weight (heavy or light) and assigned to eight outdoor group pens with five steers per pen. Pens were randomly assigned within each of the two weight blocks to four dietary treatments: (1) simulated oil-rich corn grain (coarse corn grits with corn oil added as 6% of the weight of the grits plus oil) (CO); (2) simulated oil-rich corn grain (coarse corn grits with a similar level of corn oil) with supplemental tocotrienol (CO+TT), (3) simulated high oleic acid corn grain (coarse corn grits with high oleic sunflower oil added as 6% of the weight of the grits plus oil) (HO); and (4) simulated high oleic acid corn grain (coarse corn grits with high oleic sunflower oil added as 6% of the weight of the grits plus oil) with supplemental tocotrienol (HO+TT); as summarized below:
The steers were fed their respective dietary supplements for 133 days starting Apr. 12, 2004 and ending Aug. 23, 2004. The cattle were loaded on Aug. 24, 2004 and transported to Emporia, Kans. for harvest at the IBP packing plant. Steaks and ground beef samples were evaluated for, among other things, color, shelf life (as measured by percent discoloration over time) and rancidity (as measured by TBARS concentration over time).
Ribeye steaks utilized for color evaluation were placed onto 17S foam trays with meat, fish and poultry pads (Dri-Loc AC-50) and wrapped with polyvinyl chloride (PVC) film. The steaks were placed under simulated retail display at 34+/−3 degree F. in open top cases programmed to defrost twice daily for seven days. During that time trained panelists made subjective determinations of the overall color score and percent discoloration of the ribeye steaks. […]
Percent discoloration was also determined subjectively. […]

Cc1c(O)cc2c(c1C)O[C@](C)(CCC[C@H](C)CCC[C@H](C)CCCC(C)C)CC2 [GT, gamma-tocopherol]
TBARS content of cooked ground pork patties ([1]; 0 hours following refrigeration): 0.746 mg malonaldehyde/kg sample | TBARS content of cooked ground pork patties ([1]; 24 hours following refrigeration): 1.24 mg malonaldehyde/kg sample

CCCCCCCC/C=C\CCCCCCCC(=O)O [Oleic Acid, oleic acid]
Belly thickness (swine [2]): 35.6 mm | Lateral flex (swine [2]): 11.0^b | Vertical flex (swine [2]): 18.7 | Iodine Value (IV) (swine [3]): 63.7^b | Monounsaturated Fatty Acid (MUFA) (swine [3]): 55.55^b | Polyunsaturated Fatty Acids (PUFA) (swine [3]): 9.67^b | Ground pork visual color score (swine [4]; Day 3): 1.81 | Ground pork visual color score (swine [4]; Day 4): 2.67 | Ground pork visual color score (swine [4]; Day 5): 4.38 | Ground pork discoloration (swine [5]; Day 3): 2.41 | Ground pork discoloration (swine [5]; Day 4): 2.84 | Ground pork discoloration (swine [5]; Day 5): 4.64 | Ground pork oxidation (TBARS) (swine [6]; cooked, 0 hours): 0.69^b mg malonaldehyde/kg sample | Ground pork oxidation (TBARS) (swine [6]; cooked, 24 hours): 1.73^b mg malonaldehyde/kg sample | Ground pork oxidation (TBARS) (swine [6]; uncooked, Day 0): 0.28 mg malonaldehyde/kg sample | Ground pork oxidation (TBARS) (swine [6]; uncooked, Day 4): 0.34 mg malonaldehyde/kg sample | Ground pork oxidation (TBARS) (swine [6]; uncooked, Day 7): 0.41 mg malonaldehyde/kg sample | Uncooked ribeye steak discoloration (steers; Day 3): 1.4 | Uncooked ribeye steak discoloration (steers; Day 5): 1.1^b | Uncooked ribeye steak discoloration (steers; Day 7): 1.6
